Laboratory results: ChEMBL document CHEMBL1201862, “PubChem BioAssay data set” (2004)
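Method: 48-hour compound exposure of cells in 96-well plates, five concentrations, linear interpolation of endpoints. GI50: concentration for 50% inhibition of growth.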 The source made the active and inactive calls. Cut-off read from the data, not from the text of the source: active = GI50 up to about 1.1 µM and inactive = higher.

Key:
Experiment in all cases: NCI-60 cell line screen, 48 h
786-0 = tested on: 786-0
A498 = tested on: A498
A549 = tested on: A549
ACHN = tested on: ACHN
BT-549 = tested on: BT-549
CAKI-1 = tested on: CAKI-1
CCRF-CEM = tested on: CCRF-CEM
COLO 205 = tested on: COLO 205
DU-145 = tested on: DU-145
EKVX = tested on: EKVX
HCC 2998 = tested on: HCC 2998
HCT-116 = tested on: HCT-116
HCT-15 = tested on: HCT-15
HOP-62 = tested on: HOP-62
HOP-92 = tested on: HOP-92
HT-29 = tested on: HT-29
Hs-578T = tested on: Hs-578T
KM12 = tested on: KM12
LOX IMVI = tested on: LOX IMVI
M14 = tested on: M14
MCF7 = tested on: MCF7
MDA-MB-231 = tested on: MDA-MB-231
MDA-MB-435 = tested on: MDA-MB-435
MDA-N = tested on: MDA-N
MOLT-4 = tested on: MOLT-4
Malme-3M = tested on: Malme-3M
NCI-H23 = tested on: NCI-H23
NCI-H460 = tested on: NCI-H460
NCI-H522 = tested on: NCI-H522
NCI/ADR-RES = tested on: NCI/ADR-RES
OVCAR-3 = tested on: OVCAR-3
OVCAR-4 = tested on: OVCAR-4
OVCAR-5 = tested on: OVCAR-5
OVCAR-8 = tested on: OVCAR-8
PC-3 = tested on: PC-3
RPMI-8226 = tested on: RPMI-8226
RXF 393 = tested on: RXF 393
SF-268 = tested on: SF-268
SF-295 = tested on: SF-295
SK-MEL-2 = tested on: SK-MEL-2
SK-MEL-5 = tested on: SK-MEL-5
SK-OV-3 = tested on: SK-OV-3
SN12C = tested on: SN12C
SNB-19 = tested on: SNB-19
SNB-75 = tested on: SNB-75
SR = tested on: SR
T47D = tested on: T47D
TK-10 = tested on: TK-10
U-251 = tested on: U-251
UACC-257 = tested on: UACC-257
UACC-62 = tested on: UACC-62
UO-31 = tested on: UO-31
HL-60 = tested on: HL-60
IGROV-1 = tested on: IGROV-1
K562 = tested on: K562
NCI-H226 = tested on: NCI-H226
SF-539 = tested on: SF-539
SW-620 = tested on: SW-620
SK-MEL-28 = tested on: SK-MEL-28

`O=C(CCCCCCCCC(=O)N1C(=O)CC(=O)N(c2ccccc2)C1=S)N1C(=O)CC(=O)N(c2ccccc2)C1=S` was tested, and the GI50 (786-0) was > 100 µM (inactive), the GI50 (A498) was > 100 µM (inactive) and the GI50 (A549) was > 100 µM (inactive). The GI50 (ACHN) was > 100 µM (inactive), the GI50 (BT-549) was > 100 µM (inactive) and the GI50 (CAKI-1) was > 100 µM (inactive). For the same molecule, the GI50 (CCRF-CEM) was > 100 µM (inactive), the GI50 (COLO 205) was > 100 µM (inactive) and the GI50 (DU-145) was > 100 µM (inactive). The GI50 (EKVX) was > 100 µM (inactive), the GI50 (HCC 2998) was > 100 µM (inactive) and the GI50 (HCT-116) was > 100 µM (inactive). For the same molecule, the GI50 (HCT-15) was > 100 µM, the GI50 (HOP-62) was > 100 µM (inactive) and the GI50 (HOP-92) was > 100 µM (inactive). For the same molecule, the GI50 (HT-29) was > 100 µM (inactive), the GI50 (Hs-578T) was > 100 µM (inactive) and the GI50 (KM12) was > 100 µM (inactive). The GI50 (LOX IMVI) was > 100 µM (inactive), the GI50 (M14) was > 100 µM (inactive) and the GI50 (MCF7) was > 100 µM (inactive). For the same molecule, the GI50 (MDA-MB-231) was > 100 µM (inactive), the GI50 (MDA-MB-435) was > 100 µM (inactive) and the GI50 (MDA-N) was > 100 µM (inactive). For the same molecule, the GI50 (MOLT-4) was > 100 µM (inactive), the GI50 (Malme-3M) was > 100 µM (inactive) and the GI50 (NCI-H23) was > 100 µM (inactive). The GI50 (NCI-H460) was > 100 µM (inactive), the GI50 (NCI-H522) was > 100 µM (inactive) and the GI50 (NCI/ADR-RES) was > 100 µM (inactive). For the same molecule, the GI50 (OVCAR-3) was > 100 µM (inactive), the GI50 (OVCAR-4) was > 100 µM (inactive) and the GI50 (OVCAR-5) was > 100 µM (inactive). For the same molecule, the GI50 (OVCAR-8) was > 100 µM (inactive), the GI50 (PC-3) was > 100 µM (inactive) and the GI50 (RPMI-8226) was > 100 µM (inactive). For the same molecule, the GI50 (RXF 393) was > 100 µM (inactive), the GI50 (SF-268) was > 100 µM (inactive) and the GI50 (SF-295) was > 100 µM (inactive). The GI50 (SK-MEL-2) was > 100 µM (inactive), the GI50 (SK-MEL-5) was > 100 µM (inactive) and the GI50 (SK-OV-3) was > 100 µM (inactive). For the same molecule, the GI50 (SN12C) was > 100 µM (inactive), the GI50 (SNB-19) was > 100 µM (inactive) and the GI50 (SNB-75) was > 100 µM (inactive). The GI50 (SR) was > 100 µM (inactive), the GI50 (T47D) was > 100 µM (inactive) and the GI50 (TK-10) was > 100 µM (inactive). The GI50 (U-251) was > 100 µM (inactive), the GI50 (UACC-257) was > 100 µM (inactive) and the GI50 (UACC-62) was > 100 µM (inactive). For the same molecule, the GI50 (UO-31) was > 100 µM (inactive).
`O=c1[nH]c2ccc(Cl)cc2o1` was tested, and the GI50 (786-0) was > 100 µM (inactive), the GI50 (A498) was > 100 µM (inactive) and the GI50 (A549) was > 100 µM (inactive). For the same molecule, the GI50 (ACHN) was > 100 µM (inactive), the GI50 (BT-549) was > 100 µM (inactive) and the GI50 (CAKI-1) was > 100 µM (inactive). The GI50 (CCRF-CEM) was > 100 µM (inactive), the GI50 (COLO 205) was > 100 µM (inactive) and the GI50 (DU-145) was > 100 µM (inactive). The GI50 (EKVX) was 26.7 µM (inactive), the GI50 (HCT-116) was > 100 µM (inactive) and the GI50 (HCT-15) was > 100 µM. For the same molecule, the GI50 (HL-60) was > 100 µM (inactive), the GI50 (HOP-62) was > 100 µM (inactive) and the GI50 (HOP-92) was 17.5 µM (inactive). The GI50 (HT-29) was > 100 µM (inactive), the GI50 (Hs-578T) was > 100 µM (inactive) and the GI50 (IGROV-1) was > 100 µM (inactive). The GI50 (K562) was > 100 µM (inactive), the GI50 (KM12) was > 100 µM (inactive) and the GI50 (LOX IMVI) was > 100 µM (inactive). The GI50 (M14) was > 100 µM (inactive), the GI50 (MCF7) was > 100 µM (inactive) and the GI50 (MDA-MB-231) was > 100 µM (inactive). For the same molecule, the GI50 (MDA-MB-435) was > 100 µM (inactive), the GI50 (MDA-N) was > 100 µM (inactive) and the GI50 (MOLT-4) was > 100 µM (inactive). For the same molecule, the GI50 (Malme-3M) was > 100 µM (inactive), the GI50 (NCI-H226) was > 100 µM (inactive) and the GI50 (NCI-H23) was > 100 µM (inactive). The GI50 (NCI-H460) was > 100 µM (inactive), the GI50 (NCI-H522) was 96.4 µM (inactive) and the GI50 (NCI/ADR-RES) was > 100 µM (inactive). The GI50 (OVCAR-3) was > 100 µM (inactive), the GI50 (OVCAR-4) was > 100 µM (inactive) and the GI50 (OVCAR-5) was > 100 µM (inactive). The GI50 (OVCAR-8) was > 100 µM (inactive), the GI50 (PC-3) was > 100 µM (inactive) and the GI50 (RPMI-8226) was > 100 µM (inactive). The GI50 (RXF 393) was > 100 µM (inactive), the GI50 (SF-268) was > 100 µM (inactive) and the GI50 (SF-295) was > 100 µM (inactive). The GI50 (SF-539) was > 100 µM (inactive), the GI50 (SK-MEL-5) was > 100 µM (inactive) and the GI50 (SK-OV-3) was > 100 µM (inactive). The GI50 (SN12C) was > 100 µM (inactive), the GI50 (SNB-19) was > 100 µM (inactive) and the GI50 (SNB-75) was > 100 µM (inactive). For the same molecule, the GI50 (SR) was > 100 µM (inactive), the GI50 (SW-620) was > 100 µM (inactive) and the GI50 (T47D) was > 100 µM (inactive). For the same molecule, the GI50 (TK-10) was > 100 µM (inactive), the GI50 (U-251) was > 100 µM (inactive) and the GI50 (UACC-257) was > 100 µM (inactive). For the same molecule, the GI50 (UACC-62) was > 100 µM (inactive) and the GI50 (UO-31) was > 100 µM (inactive).
For `Cc1ccc(Nc2nc(=O)[nH]c(=O)[nH]2)cc1N`, the GI50 (786-0) was > 100 µM (inactive), the GI50 (A498) was > 100 µM (inactive) and the GI50 (A549) was > 100 µM (inactive). For the same molecule, the GI50 (ACHN) was > 100 µM (inactive), the GI50 (BT-549) was > 100 µM (inactive) and the GI50 (CAKI-1) was > 100 µM (inactive). For the same molecule, the GI50 (CCRF-CEM) was > 100 µM (inactive), the GI50 (COLO 205) was > 100 µM (inactive) and the GI50 (DU-145) was > 100 µM (inactive). For the same molecule, the GI50 (EKVX) was > 100 µM (inactive), the GI50 (HCC 2998) was > 100 µM (inactive) and the GI50 (HCT-116) was > 100 µM (inactive). For the same molecule, the GI50 (HCT-15) was > 100 µM, the GI50 (HL-60) was > 100 µM (inactive) and the GI50 (HOP-62) was > 100 µM (inactive). For the same molecule, the GI50 (HOP-92) was > 100 µM (inactive), the GI50 (HT-29) was > 100 µM (inactive) and the GI50 (Hs-578T) was > 100 µM (inactive). The GI50 (IGROV-1) was > 100 µM (inactive), the GI50 (KM12) was > 100 µM (inactive) and the GI50 (LOX IMVI) was > 100 µM (inactive). For the same molecule, the GI50 (M14) was > 100 µM (inactive), the GI50 (MCF7) was > 100 µM (inactive) and the GI50 (MDA-MB-231) was > 100 µM (inactive). For the same molecule, the GI50 (MDA-MB-435) was 26.5 µM (inactive), the GI50 (MDA-N) was > 100 µM (inactive) and the GI50 (Malme-3M) was > 100 µM (inactive). The GI50 (NCI-H226) was > 100 µM (inactive), the GI50 (NCI-H23) was > 100 µM (inactive) and the GI50 (NCI-H460) was > 100 µM (inactive). For the same molecule, the GI50 (NCI-H522) was > 100 µM (inactive), the GI50 (NCI/ADR-RES) was > 100 µM (inactive) and the GI50 (OVCAR-3) was > 100 µM (inactive). For the same molecule, the GI50 (OVCAR-4) was > 100 µM (inactive), the GI50 (OVCAR-5) was > 100 µM (inactive) and the GI50 (OVCAR-8) was > 100 µM (inactive). The GI50 (PC-3) was > 100 µM (inactive), the GI50 (RPMI-8226) was > 100 µM (inactive) and the GI50 (SF-268) was > 100 µM (inactive). The GI50 (SF-295) was > 100 µM (inactive), the GI50 (SF-539) was > 100 µM (inactive) and the GI50 (SK-MEL-28) was 32.7 µM (inactive). The GI50 (SK-MEL-2) was > 100 µM (inactive), the GI50 (SK-MEL-5) was > 100 µM (inactive) and the GI50 (SK-OV-3) was > 100 µM (inactive). For the same molecule, the GI50 (SN12C) was > 100 µM (inactive), the GI50 (SNB-19) was > 100 µM (inactive) and the GI50 (SNB-75) was > 100 µM (inactive). The GI50 (SR) was > 100 µM (inactive), the GI50 (SW-620) was 30.8 µM (inactive) and the GI50 (T47D) was > 100 µM (inactive). For the same molecule, the GI50 (TK-10) was > 100 µM (inactive), the GI50 (U-251) was 27.5 µM (inactive) and the GI50 (UACC-257) was > 100 µM (inactive). For the same molecule, the GI50 (UACC-62) was > 100 µM (inactive).
